The values below come from patent US6630499B1, “Control of arthropods in animals” (Aventis CropScience, S.A., priority 1998, dated 2003).

Holding throughout (assay type): in vivo
Data set [1] has as its system ticks (Rhipicephalus sanguineus). In words: Control of ticks on treated dogs (Biological Examples 1-3). To be noted: 10 mg/kg; for % Control 1 DPT (Fleas/Ticks): Ticks: dogs, 30 mg/mL in 1:1 dimethyl sulfoxide/corn oil, 1 day post-treatment, versus placebo group. The protocol: (§1) All dogs were infested with cat fleas (Ctenocephalides felis) and with ticks (Rhipicephalus sanguineus) 1 day prior to administration of the compound. Cats were only infested with fleas. The initial flea and tick counts were performed 1 day after the administration of the compounds. At 7, 14, 21 and 28 days after treatment the dogs were re-infested with ticks and 8, 15, 22 and 29 days after treatment the dogs and cats were re-infested with fleas. At 1, 9, 16, 23 and 30 days after treatment the control of fleas and ticks in treated dogs and cats was determined versus a group of infested dogs and cats which received a placebo consisting of a 1:1 volume/volume solution of dimethyl sulfoxide and corn oil. To determine the efficacies of the compounds, the arthropods were combed from the animals and counted.
(§2) The compounds listed below were formulated and tested as described in Biological Example 1, again at the dosage level of active ingredient of 10 mg/kg in dogs and 20 mg/kg in cats. Results at 1 DPT (day post-treatment) are tabulated below, where the compound numbers are the same as those listed in Tables 1, 2, 4, 5, 6, 7, 8, 9, 10, 11, 12 and 13 hereinabove.
(§3) Testing was carried out as described in Biological Example 1. […] The Huang et al compound was deemed to have insufficient activity to be tested in cats.

Data set [2] concerns cat fleas (Ctenocephalides felis). Description: Control of cat fleas on treated cats (Biological Examples 1-3). The following applies: 20 mg/kg; for % Control 1 DPT (Fleas): cats, 30 mg/mL in 1:1 dimethyl sulfoxide/corn oil, 1 day post-treatment, versus placebo group. The protocol: as §1, §2, §3
A short description of another data set: Emesis in treated cats. To be noted: 20 mg/kg; for % Emesis: cats. The protocol:
(§4) By the term “emesis” is meant vomiting. Generally an emetic substance elicits emesis in less than 24 hours after administration, usually less than 8 hours, more usually less than 2 hours. By the term “substantially non-emetic” is meant that, generally, when a compound or composition of the invention is administered to a population of animals, more than 70% (or at least ⅔) of the animals are free of emesis. Preferably, more than 80%, most preferably more than 90%, of said population is free of emesis.
(§5) In the animals treated with the compounds above, there was substantially no emesis after 2, 8 and 24 hours. Generally long-term control of fleas and ticks was provided in dogs. In the cats treated, there was commercially acceptable control of fleas for at least one day post treatment.
as §2

The nature of a further data set: Emesis in treated dogs. The following applies: 10 mg/kg; for % Emesis: dogs. As for the experimental part: as §4, §5, §2
The subject of data set [3] is cat fleas (Ctenocephalides felis). In words: Control of cat fleas on treated dogs (Biological Examples 1-3). To be noted: 10 mg/kg; for % Control 1 DPT (Fleas/Ticks): Fleas: dogs, 30 mg/mL in 1:1 dimethyl sulfoxide/corn oil, 1 day post-treatment, versus placebo group. As for the experimental part: as §1, §2, §3

Take `COCC(=O)N(C)c1c(SC(F)(F)F)c(C#N)nn1-c1c(Cl)cc(C(F)(F)F)cc1Cl` [Compound 2-1, 1-(2,6-dichloro-4-trifluoromethylphenyl)-3-cyano-4-trifluoromethylthio-5-(N-methyl)methoxyacetamidopyrazole]: the “% Control 1 DPT (Fleas/Ticks): Ticks” value in data set [1] is on record as 100/100%. Further, in data set [1] (group of 3 dogs, 30 DPT), the “control of ticks at 30 DPT” value is recorded as 100%. In addition, in data set [2], the “% Control 1 DPT (Fleas)” value was 100%. The “control of fleas for at least a one month period” value in data set [2] (group of 4 cats, at least one month) is on record as 100%. The “% Emesis” value in the data set “Emesis in treated cats” and in “Emesis in treated dogs” was 0% each time. The vomiting result in the data set “Emesis in treated cats” (group of 4 cats) is reported as “no vomiting”. Further, in “Emesis in treated dogs” (group of 3 dogs), the emesis result is recorded as “no emesis (0/3)”. Moreover, the “% Control 1 DPT (Fleas/Ticks): Fleas” value in data set [3] is 100/100%. In addition, the “control of fleas at 30 DPT” value in data set [3] (group of 3 dogs, 30 DPT) turned out to be 93%.
On to `COCC(=O)N(C)c1c([S+]([O-])C(F)(F)F)c(C#N)nn1-c1c(Cl)cc(C(F)(F)F)cc1Cl` (centres unmarked) [Compound 2-3], for which, in data set [1], the “% Control 1 DPT (Fleas/Ticks): Ticks” value stood at 99%. Besides, the “% Control 1 DPT (Fleas)” value in data set [2] is 100%. In addition, the “% Emesis” value was 0% in the data set “Emesis in treated cats” and 33% in “Emesis in treated dogs”. Also, the “% Control 1 DPT (Fleas/Ticks): Fleas” value in data set [3] is 100%.
Regarding `COCC(=O)N(C)c1c(S(=O)(=O)C(F)(F)F)c(C#N)nn1-c1c(Cl)cc(C(F)(F)F)cc1Cl` [Compound 2-5], the “% Control 1 DPT (Fleas/Ticks): Ticks” value in data set [1] is listed as 95%. Also, in data set [2], the “% Control 1 DPT (Fleas)” value came out at 100%. Also, the results for the “% Emesis” value in “Emesis in treated cats” and in “Emesis in treated dogs” were 0% and 33%, respectively. Besides, the “% Control 1 DPT (Fleas/Ticks): Fleas” value in data set [3] is 100%.
Take `CCOCC(=O)N(C)c1c(SC(F)(F)F)c(C#N)nn1-c1c(Cl)cc(C(F)(F)F)cc1Cl` [Compound 3-1]: the “% Control 1 DPT (Fleas/Ticks): Ticks” value in data set [1] is given as 96%. Moreover, in data set [2], the “% Control 1 DPT (Fleas)” value came out at 100%. The “% Emesis” value in the data set “Emesis in treated cats” and in the data set “Emesis in treated dogs” was 0% in each case. For the same molecule, the “% Control 1 DPT (Fleas/Ticks): Fleas” value in data set [3] amounted to 100%.
In the case of `CCOCC(=O)N(C)c1c(S(=O)(=O)C(F)(F)F)c(C#N)nn1-c1c(Cl)cc(C(F)(F)F)cc1Cl` [Compound 3-5], the “% Control 1 DPT (Fleas/Ticks): Ticks” value in data set [1] is reported as 100/100%. In addition, in data set [2], the “% Control 1 DPT (Fleas)” value came to 100%. Also, the “% Emesis” value was determined as 0% in the data set “Emesis in treated cats” and 33% in the data set “Emesis in treated dogs”. Also, in data set [3], the “% Control 1 DPT (Fleas/Ticks): Fleas” value was 100/100%.
With `CC(C)N(C(=O)C1CCCO1)c1c(SC(F)(F)F)c(C#N)nn1-c1c(Cl)cc(C(F)(F)F)cc1Cl` (centres unmarked) [Compound 3-7], in data set [1], the “% Control 1 DPT (Fleas/Ticks): Ticks” value is 100/100%. In data set [2], the “% Control 1 DPT (Fleas)” value was determined as 100%. The “% Emesis” value in “Emesis in treated cats” and in the data set “Emesis in treated dogs” was 0% in each case. For the same molecule, in data set [3], the “% Control 1 DPT (Fleas/Ticks): Fleas” value was 100/100%.
As for `CCOCC(=O)N(c1c(SC(F)(F)F)c(C#N)nn1-c1c(Cl)cc(C(F)(F)F)cc1Cl)C1CC1` [Compound 3-12], in data set [1], the “% Control 1 DPT (Fleas/Ticks): Ticks” value was 97%. Further, the “% Control 1 DPT (Fleas)” value in data set [2] is on record as 97%. The “% Emesis” value in the data set “Emesis in treated cats” is given as 25%; in the data set “Emesis in treated dogs” it was 0%. Further, in data set [3], the “% Control 1 DPT (Fleas/Ticks): Fleas” value stood at 99%.
For the molecule `CC(C)OCC(=O)N(C)c1c([S+]([O-])C(F)(F)F)c(C#N)nn1-c1c(Cl)cc(C(F)(F)F)cc1Cl` (centres unmarked) [Compound 4-3], the “% Control 1 DPT (Fleas/Ticks): Ticks” value in data set [1] is recorded as 100/100%. Besides, the “% Control 1 DPT (Fleas)” value in data set [2] is reported as 100%. For the same molecule, the entries for the “% Emesis” value in “Emesis in treated cats” and in the data set “Emesis in treated dogs” were 25% and 33%, respectively. Also, the “% Control 1 DPT (Fleas/Ticks): Fleas” value in data set [3] is on record as 100/100%.
As for `CCCN(C(=O)COCC)c1c(SC(F)(F)F)c(C#N)nn1-c1c(Cl)cc(C(F)(F)F)cc1Cl` [Compound 13-1], the “% Control 1 DPT (Fleas/Ticks): Ticks” value in data set [1] was determined as 97%. The “% Control 1 DPT (Fleas)” value in data set [2] stood at 61%. Also, the “% Emesis” value in “Emesis in treated cats” and in “Emesis in treated dogs” was 0% in each case. The “% Control 1 DPT (Fleas/Ticks): Fleas” value in data set [3] is reported as 99%.
For the molecule `COCC(=O)N(CC1CC1)c1c(S(=O)(=O)C(F)(F)F)c(C#N)nn1-c1c(Cl)cc(C(F)(F)F)cc1Cl` [Compound 27-5], in data set [1], the “% Control 1 DPT (Fleas/Ticks): Ticks” value is given as 100/100%. Further, in data set [2], the “% Control 1 DPT (Fleas)” value was 100%. In addition, the “% Emesis” value in “Emesis in treated cats” and in the data set “Emesis in treated dogs” was 0% each time. In addition, the “% Control 1 DPT (Fleas/Ticks): Fleas” value in data set [3] is recorded as 100/100%.
As for `CC(=O)OCC(=O)N(C)c1c(SC(F)(F)F)c(C#N)nn1-c1c(Cl)cc(C(F)(F)F)cc1Cl` [Compound 36-1], the “% Control 1 DPT (Fleas/Ticks): Ticks” value in data set [1] turned out to be 92%. Also, in data set [2], the “% Control 1 DPT (Fleas)” value worked out at 100%. In addition, the “% Emesis” value in the data set “Emesis in treated cats” worked out at 25%; in the data set “Emesis in treated dogs” it was 0%. The “% Control 1 DPT (Fleas/Ticks): Fleas” value in data set [3] is on record as 71%.
For `COC(=O)N(C)c1c(SC(F)(F)F)c(C#N)nn1-c1c(Cl)cc(C(F)(F)F)cc1Cl` [Compound 67-1], in that order: 100/100%, 53%, 0%, 33% and 100/100%.
For `CCOC(=O)N(C)c1c(SC(F)(F)F)c(C#N)nn1-c1c(Cl)cc(C(F)(F)F)cc1Cl` [Compound 68-1, 3-cyano-1-(2,6-dichloro-4-trifluoromethylphenyl)-5-(N-ethoxycarbonyl-N-methyl)amino-4-trifluoromethylthiopyrazole], in that order: 77%, 100%, 0%, 0% and 100%.
For `CC(C)OC(=O)N(C)c1c(SC(F)(F)F)c(C#N)nn1-c1c(Cl)cc(C(F)(F)F)cc1Cl` [Compound 69-1], in that order: 94%, 100%, 0%, 0% and 98%.
On to `CCCOC(=O)N(C)c1c(SC(F)(F)F)c(C#N)nn1-c1c(Cl)cc(C(F)(F)F)cc1Cl` [Compound 70-1], for which, in data set [1], the “% Control 1 DPT (Fleas/Ticks): Ticks” value is 100%. For the same molecule, the “% Control 1 DPT (Fleas)” value in data set [2] was determined as 85%. Moreover, the “% Emesis” value in the data set “Emesis in treated cats” and in the data set “Emesis in treated dogs” was 0% in each case. The “% Control 1 DPT (Fleas/Ticks): Fleas” value in data set [3] amounted to 99%.
As to `CCN(C(=O)OC)c1c(SC(F)(F)F)c(C#N)nn1-c1c(Cl)cc(C(F)(F)F)cc1Cl` [Compound 71-1], in data set [1], the “% Control 1 DPT (Fleas/Ticks): Ticks” value is 100/100%. In addition, the “% Control 1 DPT (Fleas)” value in data set [2] amounted to 100%. The “% Emesis” value in “Emesis in treated cats” is reported as 50%; in the data set “Emesis in treated dogs” it was 0%. Besides, the “% Control 1 DPT (Fleas/Ticks): Fleas” value in data set [3] is reported as 100/100%.
Consider `CCOC(=O)N(CC)c1c(SC(F)(F)F)c(C#N)nn1-c1c(Cl)cc(C(F)(F)F)cc1Cl` [Compound 72-1], for which the “% Control 1 DPT (Fleas/Ticks): Ticks” value in data set [1] was 97%. Further, the “% Control 1 DPT (Fleas)” value in data set [2] came out at 99%. Also, the “% Emesis” value in the data set “Emesis in treated cats” and in “Emesis in treated dogs” was 0% throughout. For the same molecule, in data set [3], the “% Control 1 DPT (Fleas/Ticks): Fleas” value is reported as 100%.
Consider `CCN(C(=O)OC(C)C)c1c(SC(F)(F)F)c(C#N)nn1-c1c(Cl)cc(C(F)(F)F)cc1Cl` [Compound 73-1], for which the “% Control 1 DPT (Fleas/Ticks): Ticks” value in data set [1] is given as 100/100%. For the same molecule, the “% Control 1 DPT (Fleas)” value in data set [2] stood at 93%. Moreover, the “% Emesis” value in “Emesis in treated cats” and in the data set “Emesis in treated dogs” was 0% throughout. Also, the “% Control 1 DPT (Fleas/Ticks): Fleas” value in data set [3] is given as 100/100%.
On to `CCCOC(=O)N(CC)c1c(SC(F)(F)F)c(C#N)nn1-c1c(Cl)cc(C(F)(F)F)cc1Cl` [Compound 74-1], for which, in data set [1], the “% Control 1 DPT (Fleas/Ticks): Ticks” value was 87%. Also, in data set [2], the “% Control 1 DPT (Fleas)” value came out at 100%. Also, the “% Emesis” value in “Emesis in treated cats” and in “Emesis in treated dogs” was 0% each time. Further, in data set [3], the “% Control 1 DPT (Fleas/Ticks): Fleas” value stood at 99%.
As for `CCCN(C(=O)OC)c1c(SC(F)(F)F)c(C#N)nn1-c1c(Cl)cc(C(F)(F)F)cc1Cl` [Compound 75-1], the “% Control 1 DPT (Fleas/Ticks): Ticks” value in data set [1] stood at 57%. The “% Control 1 DPT (Fleas)” value in data set [2] is 71%. Further, the figures for the “% Emesis” value in the data set “Emesis in treated cats” and in “Emesis in treated dogs” were 25% and 0%, respectively. Besides, the “% Control 1 DPT (Fleas/Ticks): Fleas” value in data set [3] is 89%.
For `CCCN(C(=O)OCC)c1c(SC(F)(F)F)c(C#N)nn1-c1c(Cl)cc(C(F)(F)F)cc1Cl` [Compound 76-1], in that order: 86%, 100%, 0%, 0% and 100%.
